The values below come from PubChem BioAssay (NCI).

“And” between values parts separate entries of the source, which are not always exact repeats. Identical values can stand only once.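 Dose response: 5 concentrations. Exposure: 48 h. Format: 96-well plates. Endpoint: linear interpolation; highest concentration if not reached. GI50: concentration for 50% inhibition of growth. TGI: concentration producing complete growth inhibition.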

Test systems include A549 NSCLC; ACHN renal; OVCAR-5 ovarian; SF-295 CNS; SK-MEL-2 melanoma; SK-MEL-28 melanoma; SNB-75 CNS; NCI-H522 lung; SR leukemia.
What all share (assay): DTP human tumour cell line panel, 48 h

On to `O=C(CC1(O)C(=O)Nc2c(Cl)ccc(Cl)c21)c1ccc(Cl)cc1` (stereo not given), for which the TGI in the test with A549 NSCLC was over 100 µM; with ACHN renal it was 38.7 µM; with OVCAR-5 ovarian, over 100 µM; with SF-295 CNS, 83.4 µM; with SK-MEL-2 melanoma, 86.4 µM; with SK-MEL-28 melanoma it was over 100 µM. For the same compound, the concentration for total growth inhibition (TGI) in the test on SNB-75 CNS amounted to 64.9 µM.
In the case of `O=C(/C=C(\[O-])c1ccccc1)CCCCCCC(=O)/C=C(\[O-])c1ccccc1.O=C(/C=C(\[O-])c1ccccc1)CCCCCCC(=O)/C=C(\[O-])c1ccccc1.O=C(/C=C(\[O-])c1ccccc1)CCCCCCC(=O)/C=C(\[O-])c1ccccc1.[Y+3].[Y+3]`, the GI50 with A549 NSCLC was over 50 µM; with ACHN renal, 40.3 µM; with NCI-H522 lung it was 9.86 µM; with OVCAR-5 ovarian, over 50 µM; in the test on SF-295 CNS, over 50 µM; in the test with SK-MEL-2 melanoma it was over 50 µM. Also, the results for the GI50 in the test with SK-MEL-28 melanoma and in the test on SNB-75 CNS were over 50 µM and 8.98 µM, respectively. The TGI in the test on A549 NSCLC is over 50 µM; with ACHN renal, over 50 µM; in the test on NCI-H522 lung, 37.9 µM; with OVCAR-5 ovarian it was over 50 µM; with SF-295 CNS it was over 50 µM; in the test on SK-MEL-2 melanoma it was over 50 µM. In addition, the results for the TGI in the test with SK-MEL-28 melanoma and in the test on SNB-75 CNS were over 50 µM and 22.2 µM, respectively.
Turning to `CN(C)c1ccc(/C=c2/sc3nc(=O)c(-c4ccccc4NC(=O)C(F)(F)F)nn3c2=O)cc1`, the TGI in the test on A549 NSCLC, in the test with ACHN renal, with NCI-H522 lung, in the test with OVCAR-5 ovarian, with SF-295 CNS and in the test with SK-MEL-2 melanoma was over 100 µM each time. For the same compound, the TGI in the test with SK-MEL-28 melanoma, with SNB-75 CNS and in the test with SR leukemia was over 100 µM in each case.
Consider `C/C(=C\c1ccccc1)C(O)C(=O)c1nc2ccc(Cl)cc2[nH]c1=O` (stereo not given), for which the total growth inhibition concentration (TGI) in the test with A549 NSCLC, in the test on ACHN renal, in the test on NCI-H522 lung, with OVCAR-5 ovarian, with SF-295 CNS and in the test on SK-MEL-2 melanoma was over 100 µM each time. The TGI in the test with SK-MEL-28 melanoma and with SR leukemia was over 100 µM throughout.
On to `CCCCC(C(=O)C(=O)Nc1ccccc1CC)C(=O)C(C)C` (stereo not given), for which the TGI in the test on A549 NSCLC, with ACHN renal, in the test with NCI-H522 lung, in the test on OVCAR-5 ovarian, in the test on SF-295 CNS and in the test on SK-MEL-2 melanoma was over 100 µM throughout.
For `CC(=O)NC(CCCNC(=O)OCc1ccccc1)C(=O)NCc1ccccc1` (stereo not given), the TGI in the test on A549 NSCLC, with ACHN renal, in the test on NCI-H522 lung, in the test on OVCAR-5 ovarian, with SF-295 CNS and with SK-MEL-2 melanoma was over 100 µM throughout. Besides, the TGI in the test on SK-MEL-28 melanoma and in the test with SNB-75 CNS was over 100 µM each time.
As to `O=[N+]([O-])c1ccc(/C=C/c2ccc(/C=C/c3ccc([N+](=O)[O-])cc3[N+](=O)[O-])cc2)c([N+](=O)[O-])c1`, the TGI in the test with A549 NSCLC, with ACHN renal, with OVCAR-5 ovarian, in the test with SF-295 CNS, with SK-MEL-2 melanoma and with SK-MEL-28 melanoma was over 100 µM in each case. In the test with SNB-75 CNS, this compound showed a TGI of over 100 µM.
Regarding `O=C1c2ccccc2N1C(=O)c1ccccc1[N+](=O)[O-]`, the TGI in the test with A549 NSCLC, with ACHN renal, in the test with NCI-H522 lung, with OVCAR-5 ovarian, with SK-MEL-2 melanoma and in the test on SK-MEL-28 melanoma was over 100 µM each time. For the same compound, the TGI in the test on SNB-75 CNS and in the test with SR leukemia was over 100 µM each time.
In the case of `N#CC1(CCCCl)CCCCC1`, the total growth inhibition concentration (TGI) in the test on A549 NSCLC, in the test with ACHN renal, with NCI-H522 lung, in the test with OVCAR-5 ovarian, in the test on SF-295 CNS and with SK-MEL-2 melanoma was over 100 µM throughout. Also, the TGI in the test on SK-MEL-28 melanoma, with SNB-75 CNS and in the test on SR leukemia was over 100 µM in each case.
In the case of `CCOC(=O)C1C(NC(N)=O)N(Cc2ccccc2)C(=O)N1Cc1ccccc1` (stereo not given), the TGI with A549 NSCLC, with ACHN renal, with NCI-H522 lung, in the test with OVCAR-5 ovarian, in the test with SF-295 CNS and in the test on SK-MEL-2 melanoma was over 100 µM each time. The TGI in the test with SK-MEL-28 melanoma, in the test on SNB-75 CNS and in the test on SR leukemia was over 100 µM each time.
Regarding `N#Cc1c(CC(=O)O)cc(=O)n2c1[nH]c1ccccc12`, the TGI with A549 NSCLC, in the test on ACHN renal, in the test with OVCAR-5 ovarian, with SF-295 CNS, with SK-MEL-2 melanoma and with SK-MEL-28 melanoma was over 100 µM each time. Besides, the TGI with SNB-75 CNS and in the test on SR leukemia was over 100 µM each time.
Consider `O/N=C1/C(=C/c2ccc(OCc3ccccc3)cc2)CCCC1C(NO)c1ccc(OCc2ccccc2)cc1` (stereo not given), for which the TGI with A549 NSCLC is over 100 µM; in the test with ACHN renal it was over 100 µM; in the test with NCI-H522 lung, 48 µM; in the test with OVCAR-5 ovarian, over 100 µM; with SK-MEL-2 melanoma, over 100 µM; in the test with SK-MEL-28 melanoma, over 100 µM. Further, the total growth inhibition concentration (TGI) in the test on SNB-75 CNS is 97.9 µM; in the test with SR leukemia, over 100 µM.
Turning to `CCCCCNC(=O)CCCCCCCCCCCNC(=O)CCCCCCCCCCN1C=CC(=CC=C2C=CC(=O)C=C2)C=C1`, the TGI in the test with A549 NSCLC, in the test with ACHN renal, with NCI-H522 lung, with OVCAR-5 ovarian, in the test with SF-295 CNS and in the test on SK-MEL-28 melanoma was over 100 µM in each case. Also, the TGI with SNB-75 CNS is 68.3 µM; in the test on SR leukemia it was over 100 µM.
Consider `CC(C)(C)C1CCC(O)(c2ccccc2)CC1` (stereo not given), for which the concentration for total growth inhibition (TGI) is > 100 µM and 89.2 µM in the test on A549 NSCLC; > 100 µM and 59.9 µM in the test with ACHN renal; > 100 µM and 55.1 µM with NCI-H522 lung; over 100 µM in the test on OVCAR-5 ovarian; over 100 µM in the test with SF-295 CNS; > 100 µM and 28.4 µM in the test on SK-MEL-2 melanoma. The TGI in the test on SK-MEL-28 melanoma was > 100 µM and 64.5 µM; with SNB-75 CNS, > 100 µM and 60 µM; in the test with SR leukemia, > 100 µM and 33 µM.
